Results on five molecules are retold here after PMC6205183 (Oncotarget, 2018).

One data set deals with K562 DOX-R cells. Description: Viability assay (Annexin V/7AAD), K562 DOX-R. In kind it is cell-based, human. As to conditions: for IC50 / viability on co-treatment with ponatinib: K562 DOX-R; for IC50: read-out: TKI viability assay IC50; for viability on co-treatment with ponatinib: compared to control line. As to the method: (§1) Cells were removed from drug-containing culture medium, washed and re-cultured in fresh media (with testing drug) for 72 hours. Cells then were stained with 7-Amino-actinomycin D (7AAD) and Annexin V-PE. Flow cytometry (BD LSRFortessaTM X-20 with high-throughput platform) was performed to determine cell viability: cells stained positive for Annexin V-PE and 7AAD were considered to be apoptotic or dead respectively. The data were analysed using FCS Express software (DeNovo Software, Los Angeles, California, USA).

The subject of another data set is K562-R cells. Description: Viability assay (Annexin V/7AAD), K562-R. In kind it is cell-based, human. As to conditions: for IC50 / viability on co-treatment with ponatinib: K562-R; for IC50: read-out: TKI viability assay IC50; for viability on co-treatment with ponatinib: compared to control line. As to the method: as §1
A further data set relates to K562 DOX 55D-R cells. Description: cells. As to conditions: Homo sapiens, K562, read-out: TKI viability assay IC50. As to the method:
as §1

A further data set concerns K562 T315I-R cells. Put plainly: cells. As to conditions: Homo sapiens, K562, read-out: TKI viability assay IC50. As to the method:
as §1

In data set [1] the test system is Axl. As to conditions: no reference given; cited from earlier work.
Data set [2] has as its system Axl. The arrangement: method as in PMID 20080645, PMID 16230391, PMID 20603615, PMID 20145120. The conditions noted are these: cited from earlier work.
Another data set relates to K562-R-AXL KD cells. Put plainly: Viability assay, AXL knock-down K562-R. As to conditions: 10 nM ponatinib, 72 hours, n=3. The data set is classed as cell-based, human. As to the method: (§2) Stable AXL knock-down K562-R-AXL KD, and K562 DOX-R-AXL KD cell lines were generated, as well as the scramble control lines K562-R-scramble CTL, and K562 DOX-R-scramble CTL.
as §1
(§3) The GFP level and Axl expression level were measured after fluorescence-activated cell sorting (FACS) and before each experiment to ensure purity.

The conditions of data set [3]: 45 mg once daily; cited from earlier work.
The next data set relates to K562 DOX-R-AXL KD cells. Put plainly: Viability assay, AXL knock-down K562 DOX-R. The data set is classed as cell-based, human. The conditions noted are these: 10 nM ponatinib, 72 hours, n=3. As to the method: as §2, §1, §3
The next data set relates to K562 cells. Put plainly: Viability assay (Annexin V/7AAD), K562 control. In kind it is cell-based, human. As to conditions: 200 nM ponatinib, three days. As to the method: (§4) Flow cytometry (BD LSRFortessaTM X-20 with high-throughput platform) was performed to determine cell viability: cells stained positive for Annexin V-PE and 7AAD were considered to be apoptotic or dead respectively. […]

In a further data set the test system is K562 DOX cells. Put plainly: Viability assay (Annexin V/7AAD), K562 DOX control. In kind it is cell-based, human. The conditions noted are these: 200 nM ponatinib, three days. As to the method: as §4
In data set [4] the test system is K562-R-scramble CTL cells. Put plainly: Viability assay, scramble shRNA K562-R. In kind it is cell-based, human. The conditions noted are these: K562-R scrambled shRNA control, 10 nM ponatinib, 72 hours, n=3. As to the method: as §2, §1, §3
For data set [5], the system named is K562 DOX-R-scramble CTL cells. Description: Viability assay, scramble shRNA K562 DOX-R. In kind it is cell-based, human. As to conditions: K562 DOX-R scrambled shRNA control, 10 nM ponatinib, 72 hours, n=3. As to the method: as §2, §1, §3

The IC50 is the point on the concentration scale where inhibition reaches its midpoint. By viability is commonly meant a per cent measure of how many cells are alive, often set against a control. Lower therefore signals a greater loss of cells.

Entries after “also recorded” stand apart in the source; their conditions may differ.

In the case of `Cc1nc(Nc2ncc(C(=O)Nc3c(C)cccc3Cl)s2)cc(N2CCN(CCO)CC2)n1` [dasatinib], the half-maximal inhibitory concentration (IC50) in the data set on K562 DOX-R cells (Homo sapiens) was over 200 nM; in the data set with K562-R cells (Homo sapiens, K-562R), over 200 nM; in the data set with K562 DOX 55D-R cells it was over 200 nM; in the data set on K562 T315I-R cells, over 200 nM.
Turning to `CCOc1ccn(-c2ccc(F)cc2)c(=O)c1C(=O)Nc1ccc(Oc2ccnc(N)c2Cl)c(F)c1` [BMS-777607], the “viability on co-treatment with ponatinib” value is recorded as “significantly reduced; also recorded: induced cell death significantly” in the data set on K562 DOX-R cells (12.5 μM BMS777607 + 200 nM ponatinib, n=4, p<0.01) and “significantly reduced; also recorded: induced cell death significantly” in the data set with K562-R cells (12.5 μM BMS777607 + 200 nM ponatinib, n=3, p=0.03). Further, in the data set with Axl [1], the “potency against Axl relative to MET” value is given as 3 times.
For `Cc1cn(-c2cc(NC(=O)c3ccc(C)c(Nc4nccc(-c5cccnc5)n4)c3)cc(C(F)(F)F)c2)cn1` [nilotinib], the IC50 in the data set with K562 DOX-R cells (Homo sapiens) is over 1000 nM; in the data set with K562-R cells (Homo sapiens, K-562R), over 1000 nM; in the data set on K562 DOX 55D-R cells it was over 1000 nM; in the data set with K562 T315I-R cells it was over 1000 nM.
Regarding `Nc1nc(Nc2ccc3c(c2)CCC(N2CCCC2)CC3)nn1-c1cc2c(nn1)-c1ccccc1CCC2` (stereo not drawn) [R428], the “viability on co-treatment with ponatinib” value in the data set with K562 DOX-R cells (1 μM R428 + 200 nM ponatinib, n=4, p=0.02) is reported as “significantly reduced; also recorded: induced cell death significantly”; in the data set with K562-R cells (1 μM R428 + 200 nM ponatinib, n=3, p=0.02) it was “significantly reduced; also recorded: induced cell death significantly”. In addition, the “specificity in targeting Axl over the other TAM family members (Mer and Tyro3)” value in the data set with Axl [2] is on record as 50 to 100 fold.
Turning to `Cc1ccc(C(=O)Nc2ccc(CN3CCN(C)CC3)c(C(F)(F)F)c2)cc1C#Cc1cnc2cccnn12` [ponatinib, 3-[2-(imidazo[1,2-b]pyridazin-3-yl)ethynyl]-4-methyl-N-{4-[(4-methylpiperazin-1-yl)methyl]-3-(trifluoromethyl)phenyl}benzamide], the viability at 0.2 µM is over 75% with K562 DOX-R cells (Homo sapiens, K562, 72 h) and over 75% in the data set on K562-R cells (Homo sapiens, K-562R, 72 h). The reduction in viability is listed as 68% in the data set with K562-R-AXL KD cells, 53% with K562 DOX-R-AXL KD cells, 22% in [4] and 16% in data set [5]. In addition, in data set [3], the “medium human peak plasma level” value is on record as 145 nM. For the same molecule, the “medium human trough plasma level” value in data set [3] is recorded as 64 nM. In addition, the “sensitivity to ponatinib (viability)” value in the data set with K562 cells and in the data set on K562 DOX cells was “demonstrated sensitivity” in each case.
